# ChEMBL document CHEMBL3853264 (Medchemcomm, 2016)
# Tests used:
# [1] = Intrinsic clearance in rat liver microsomes; assay type: ADME; settings: read-out: CLH
# [2] = Solubility of the compound at pH 6.5; assay type: physicochemical; settings: buffer
# [3] = Dissociation constant, pKa of the compound; assay type: physicochemical
# [4] = Intrinsic clearance in human liver microsomes; assay type: ADME; settings: read-out: CLH
# [5] = Octanol-water partition co-efficient, log D of the compound by shake flask method; assay type: physicochemical
# [6] = Permeability in RRCK cells; assay type: ADME, cell-based, Canis lupus familiaris, MDCKII-LE; settings: dog, MDCK; read-out: permeability
# [7] = Intrinsic clearance in dog liver microsomes; assay type: ADME, Canis lupus familiaris; settings: read-out: CLH
# [8] = Fraction unbound in human plasma; assay type: ADME, cell-free
# [9] = Fraction unbound in rat plasma; assay type: ADME, cell-free
# [10] = target: Solute carrier organic anion transporter family member 1B1 (Homo sapiens, UniProt Q9Y6L6); assay: Drug uptake assessed as human OATP1B1-mediated drug accumulation by cell-based assay relative to wild type protein; assay type: ADME
# Chain of Solute carrier organic anion transporter family member 1B1 (Q9Y6L6 whole entry): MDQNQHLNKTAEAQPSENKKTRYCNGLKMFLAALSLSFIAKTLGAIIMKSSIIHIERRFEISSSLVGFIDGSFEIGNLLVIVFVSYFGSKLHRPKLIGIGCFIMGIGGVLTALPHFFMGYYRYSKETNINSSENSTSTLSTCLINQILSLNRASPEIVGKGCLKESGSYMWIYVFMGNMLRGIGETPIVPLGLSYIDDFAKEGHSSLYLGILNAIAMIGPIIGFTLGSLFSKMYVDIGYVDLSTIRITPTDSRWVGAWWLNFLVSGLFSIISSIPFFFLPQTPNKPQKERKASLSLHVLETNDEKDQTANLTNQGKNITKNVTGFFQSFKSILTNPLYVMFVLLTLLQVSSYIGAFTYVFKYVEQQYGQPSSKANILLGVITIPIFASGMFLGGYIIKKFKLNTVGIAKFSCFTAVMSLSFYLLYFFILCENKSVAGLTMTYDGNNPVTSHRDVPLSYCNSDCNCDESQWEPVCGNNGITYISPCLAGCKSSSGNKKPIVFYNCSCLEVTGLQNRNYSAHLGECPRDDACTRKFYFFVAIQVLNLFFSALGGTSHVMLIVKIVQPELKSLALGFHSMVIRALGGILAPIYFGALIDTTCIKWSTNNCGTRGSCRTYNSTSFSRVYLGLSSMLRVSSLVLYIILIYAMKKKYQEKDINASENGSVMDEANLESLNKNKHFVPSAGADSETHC
# [11] = target: Solute carrier organic anion transporter family member 1B3 (Homo sapiens, UniProt Q9NPD5); assay: Drug uptake assessed as human OATP1B3-mediated drug accumulation by cell-based assay relative to wild type protein; assay type: ADME
# Chain of Solute carrier organic anion transporter family member 1B3 (Q9NPD5 whole entry): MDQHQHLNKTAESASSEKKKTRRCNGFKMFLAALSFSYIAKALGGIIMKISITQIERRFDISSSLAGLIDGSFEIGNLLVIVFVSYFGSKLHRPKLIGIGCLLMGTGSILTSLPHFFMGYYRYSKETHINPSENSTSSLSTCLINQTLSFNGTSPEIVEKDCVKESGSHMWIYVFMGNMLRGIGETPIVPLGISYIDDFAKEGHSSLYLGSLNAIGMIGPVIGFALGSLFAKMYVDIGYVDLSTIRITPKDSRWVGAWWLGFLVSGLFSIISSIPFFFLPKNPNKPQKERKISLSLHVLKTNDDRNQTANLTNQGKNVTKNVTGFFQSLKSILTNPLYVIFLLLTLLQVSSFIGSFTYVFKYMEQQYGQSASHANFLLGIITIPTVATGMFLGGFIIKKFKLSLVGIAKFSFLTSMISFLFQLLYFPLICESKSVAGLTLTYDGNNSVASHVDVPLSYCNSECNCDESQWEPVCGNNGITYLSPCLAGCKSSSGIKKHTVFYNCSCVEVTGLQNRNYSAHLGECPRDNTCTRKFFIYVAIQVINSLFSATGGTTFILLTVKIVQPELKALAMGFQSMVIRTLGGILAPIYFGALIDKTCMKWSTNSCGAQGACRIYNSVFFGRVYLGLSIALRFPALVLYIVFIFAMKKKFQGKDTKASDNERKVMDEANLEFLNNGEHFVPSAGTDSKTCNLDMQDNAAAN
# [12] = target: Solute carrier organic anion transporter family member 2B1 (Homo sapiens, UniProt O94956); assay: Drug uptake assessed as human OATP2B1-mediated drug accumulation by cell-based assay relative to wild type protein; assay type: ADME
# Chain of Solute carrier organic anion transporter family member 2B1 (O94956 whole entry): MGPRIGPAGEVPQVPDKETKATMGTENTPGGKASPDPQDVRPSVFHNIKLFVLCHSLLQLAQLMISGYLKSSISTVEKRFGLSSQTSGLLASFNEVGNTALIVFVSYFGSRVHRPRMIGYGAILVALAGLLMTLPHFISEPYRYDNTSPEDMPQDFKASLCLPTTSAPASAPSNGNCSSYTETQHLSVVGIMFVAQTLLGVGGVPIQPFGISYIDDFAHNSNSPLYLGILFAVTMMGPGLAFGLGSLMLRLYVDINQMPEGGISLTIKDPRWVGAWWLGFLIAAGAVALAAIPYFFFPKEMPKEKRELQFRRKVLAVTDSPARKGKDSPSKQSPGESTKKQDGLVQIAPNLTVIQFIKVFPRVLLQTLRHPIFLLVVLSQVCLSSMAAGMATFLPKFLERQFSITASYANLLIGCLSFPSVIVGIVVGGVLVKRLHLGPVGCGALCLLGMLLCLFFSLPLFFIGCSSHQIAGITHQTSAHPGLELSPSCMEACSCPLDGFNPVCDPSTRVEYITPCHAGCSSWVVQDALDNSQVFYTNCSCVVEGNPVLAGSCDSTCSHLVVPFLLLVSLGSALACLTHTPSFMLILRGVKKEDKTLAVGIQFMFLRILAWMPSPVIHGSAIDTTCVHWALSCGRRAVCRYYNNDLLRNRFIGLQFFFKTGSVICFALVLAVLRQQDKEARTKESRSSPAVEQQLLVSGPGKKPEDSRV
# Cytochrome P450 1A2 = Cytochrome P450 1A2 (Homo sapiens, UniProt P05177); assay: Inhibition of CYP1A2 (unknown origin); assay type: ADME
# Chain of Cytochrome P450 1A2 (P05177 whole entry): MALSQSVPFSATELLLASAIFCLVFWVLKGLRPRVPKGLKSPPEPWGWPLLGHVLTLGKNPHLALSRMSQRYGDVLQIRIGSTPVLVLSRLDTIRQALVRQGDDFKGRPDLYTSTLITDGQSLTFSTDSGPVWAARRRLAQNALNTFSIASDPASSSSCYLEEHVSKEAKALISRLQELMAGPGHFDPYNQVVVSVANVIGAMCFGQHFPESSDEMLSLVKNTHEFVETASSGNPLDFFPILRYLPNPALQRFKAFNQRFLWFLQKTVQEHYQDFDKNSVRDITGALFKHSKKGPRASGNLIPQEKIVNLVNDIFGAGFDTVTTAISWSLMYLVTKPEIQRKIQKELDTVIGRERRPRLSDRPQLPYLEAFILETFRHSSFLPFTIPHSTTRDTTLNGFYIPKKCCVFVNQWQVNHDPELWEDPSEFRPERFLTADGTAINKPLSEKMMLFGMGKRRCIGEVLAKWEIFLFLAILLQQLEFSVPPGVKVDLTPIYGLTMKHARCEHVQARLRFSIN
# Cytochrome P450 2C8 = Cytochrome P450 2C8 (Homo sapiens, UniProt P10632); assay: Inhibition of CYP2C8 (unknown origin); assay type: ADME
# Cytochrome P450 2C9 = Cytochrome P450 2C9 (Homo sapiens, UniProt P11712); assay: Inhibition of CYP2C9 (unknown origin); assay type: ADME
# Chain of Cytochrome P450 2C9 (P11712 whole entry): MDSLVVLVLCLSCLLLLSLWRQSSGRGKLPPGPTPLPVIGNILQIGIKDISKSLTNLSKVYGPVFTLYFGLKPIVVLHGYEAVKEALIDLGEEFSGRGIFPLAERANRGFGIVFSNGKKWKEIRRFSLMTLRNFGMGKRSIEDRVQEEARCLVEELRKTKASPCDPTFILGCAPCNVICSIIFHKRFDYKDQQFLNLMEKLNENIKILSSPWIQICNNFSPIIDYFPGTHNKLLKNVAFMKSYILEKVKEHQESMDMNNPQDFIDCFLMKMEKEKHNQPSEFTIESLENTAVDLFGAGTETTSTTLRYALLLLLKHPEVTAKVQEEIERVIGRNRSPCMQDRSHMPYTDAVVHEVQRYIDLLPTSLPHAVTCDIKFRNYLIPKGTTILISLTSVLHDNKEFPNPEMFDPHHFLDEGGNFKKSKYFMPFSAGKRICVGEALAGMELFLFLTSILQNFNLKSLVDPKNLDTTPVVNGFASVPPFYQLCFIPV
# Cytochrome P450 2D6 = Cytochrome P450 2D6 (Homo sapiens, UniProt P10635); assay: Inhibition of CYP2D6 (unknown origin); assay type: ADME
# Chain of Cytochrome P450 2D6 (P10635 whole entry): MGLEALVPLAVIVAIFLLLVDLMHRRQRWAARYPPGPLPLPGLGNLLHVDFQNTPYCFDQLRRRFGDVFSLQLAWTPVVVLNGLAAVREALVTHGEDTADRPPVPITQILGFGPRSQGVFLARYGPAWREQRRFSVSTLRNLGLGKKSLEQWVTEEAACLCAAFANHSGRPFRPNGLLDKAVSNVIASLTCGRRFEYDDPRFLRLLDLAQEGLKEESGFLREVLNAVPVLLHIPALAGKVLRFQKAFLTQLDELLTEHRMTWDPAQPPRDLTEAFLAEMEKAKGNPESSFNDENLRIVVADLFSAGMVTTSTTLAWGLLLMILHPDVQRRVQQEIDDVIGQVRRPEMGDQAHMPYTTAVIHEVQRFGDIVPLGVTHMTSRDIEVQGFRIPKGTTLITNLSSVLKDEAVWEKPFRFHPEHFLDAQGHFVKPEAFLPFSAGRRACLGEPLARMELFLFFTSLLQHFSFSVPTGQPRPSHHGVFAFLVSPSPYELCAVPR
# [13] = target: Solute carrier family 22 member 6 (Homo sapiens, UniProt Q4U2R8); assay: Inhibition of OAT1 (unknown origin)
# Chain of Solute carrier family 22 member 6 (Q4U2R8 whole entry): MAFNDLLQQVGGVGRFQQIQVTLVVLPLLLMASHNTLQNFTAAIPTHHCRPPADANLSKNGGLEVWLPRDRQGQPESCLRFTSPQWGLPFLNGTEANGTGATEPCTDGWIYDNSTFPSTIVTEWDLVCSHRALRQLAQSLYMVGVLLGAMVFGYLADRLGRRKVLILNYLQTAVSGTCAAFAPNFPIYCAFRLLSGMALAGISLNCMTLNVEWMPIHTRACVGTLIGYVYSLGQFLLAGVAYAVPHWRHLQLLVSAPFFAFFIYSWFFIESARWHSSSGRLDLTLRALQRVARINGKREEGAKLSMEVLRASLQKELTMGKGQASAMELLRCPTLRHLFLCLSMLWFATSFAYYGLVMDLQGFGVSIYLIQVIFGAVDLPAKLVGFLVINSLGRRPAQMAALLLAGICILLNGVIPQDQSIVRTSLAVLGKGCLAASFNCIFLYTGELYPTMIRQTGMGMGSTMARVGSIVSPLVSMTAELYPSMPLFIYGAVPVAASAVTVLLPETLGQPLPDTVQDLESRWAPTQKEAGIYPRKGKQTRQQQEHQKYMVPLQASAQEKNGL
# [14] = target: Organic anion transporter 3 (Homo sapiens, UniProt Q8TCC7); assay: Inhibition of OAT3 (unknown origin)
# [15] = target: Solute carrier family 22 member 11 (Homo sapiens, UniProt Q9NSA0); assay: Inhibition of OAT4 (unknown origin)
# Chain of Solute carrier family 22 member 11 (Q9NSA0 whole entry): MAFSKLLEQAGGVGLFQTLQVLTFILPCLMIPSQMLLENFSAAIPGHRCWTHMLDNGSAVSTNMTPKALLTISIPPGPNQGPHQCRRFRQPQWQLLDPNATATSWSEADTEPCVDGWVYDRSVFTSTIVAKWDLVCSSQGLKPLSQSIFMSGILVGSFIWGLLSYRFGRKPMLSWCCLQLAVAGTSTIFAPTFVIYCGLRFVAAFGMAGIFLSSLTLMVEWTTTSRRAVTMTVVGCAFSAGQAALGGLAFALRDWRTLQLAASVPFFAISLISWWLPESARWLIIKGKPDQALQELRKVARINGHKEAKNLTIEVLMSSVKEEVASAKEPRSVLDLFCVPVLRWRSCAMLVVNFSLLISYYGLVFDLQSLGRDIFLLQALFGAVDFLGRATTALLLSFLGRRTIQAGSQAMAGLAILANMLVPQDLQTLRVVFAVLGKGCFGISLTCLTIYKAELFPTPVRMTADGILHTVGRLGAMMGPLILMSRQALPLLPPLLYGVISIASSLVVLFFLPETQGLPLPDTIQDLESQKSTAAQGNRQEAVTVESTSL
# [16] = Cytotoxicity against THLE cells; assay type: toxicity, cell-based; settings: human
# [17] = Mutagenicity in […] by Ames test in presence of […] fraction; assay type: toxicity
# [18] = target: Sodium channel protein type 5 subunit alpha (Homo sapiens, UniProt Q14524); assay: Inhibition of human NaV1.5 expressed in HEK293 cells by patch clamp method; assay type: cell-based
# [19] = Inhibition of GABAA receptor (unknown origin); design: species or system Homo sapiens
# [20] = Intrinsic clearance in human hepatocytes assessed per 10^6 cells; assay type: ADME, cell-based, Hepatocyte; settings: read-out: CLH
# [21] = Intrinsic clearance in rat hepatocytes assessed per 10^6 cells; assay type: ADME, cell-based, Hepatocyte; settings: read-out: CLH
# [22] = Intrinsic clearance in dog hepatocytes assessed per 10^6 cells; assay type: ADME, cell-based, Canis lupus familiaris, Hepatocyte; settings: read-out: CLH
# [23] = Plasma clearance in rat at 0.76 mg/kg, iv and 2.3 mg/kg, po; assay type: ADME, organism-based
# [24] = Unbound clearance in rat at 0.76 mg/kg, iv and 2.3 mg/kg, po; assay type: ADME, organism-based; settings: in vivo
# [25] = Volume of distribution at steady state in rat at 0.76 mg/kg, iv and 2.3 mg/kg, po; assay type: ADME, organism-based; settings: in vivo, read-out: Vdss
# [26] = Oral bioavailability in rat at 2.3 mg/kg; assay type: ADME, organism-based; settings: in vivo
# [27] = Plasma clearance in rat at 0.5 mg/kg, iv and 1 mg/kg, po; assay type: ADME, organism-based
# [28] = Half life in rat at 0.5 mg/kg, iv and 1 mg/kg, po; assay type: ADME, organism-based; settings: in vivo
# [29] = Volume of distribution at steady state in rat at 0.5 mg/kg, iv and 1 mg/kg, po; assay type: ADME, organism-based; settings: in vivo, read-out: Vdss
# [30] = Oral bioavailability in rat at 1 mg/kg; assay type: ADME, organism-based; settings: in vivo
# [31] = Drug excretion in bile of bile duct cannulated rat; assay type: ADME; settings: read-out: Drug excretion
# [32] = Renal clearance in rat; assay type: ADME; settings: in vivo
# [33] = Renal clearance in dog; assay type: ADME, Canis lupus familiaris; settings: in vivo
# [34] = Drug metabolism in human liver microsomes assessed as oxidation of chlorophenyl ring; assay type: ADME
# [35] = Drug metabolism in rat assessed as oxidation of chlorophenyl ring; assay type: ADME
# [36] = Drug metabolism in dog assessed as oxidation of chlorophenyl ring; assay type: ADME, Canis lupus familiaris
# [37] = Drug metabolism in human hepatocytes assessed as loss of chlorobenzonitrile moiety in presence of glutathione; assay type: ADME, cell-based, Hepatocyte
# [38] = Drug metabolism in dog assessed as loss of chlorobenzonitrile moiety in presence of glutathione; assay type: ADME, Canis lupus familiaris
# [39] = Drug metabolism in rat assessed as loss of chlorobenzonitrile moiety in presence of glutathione; assay type: ADME
# Rattus norvegicus [40] = assay: Toxicity in rat assessed as mortality at 300 mg/kg/day, po measured over 14 days; assay type: organism-based; settings: in vivo, 336 h
# Rattus norvegicus [41] = assay: Toxicity in rat assessed as hypertrophy/hyperplasia of the urothelium at 300 mg/kg/day, po measured over 14 days by microscopic analysis; assay type: organism-based; settings: in vivo, 336 h
# Rattus norvegicus [42] = assay: Toxicity in rat assessed as hepatocellular hypertrophy with focal necrosis at 300 mg/kg/day, po measured over 14 days by microscopic analysis; assay type: organism-based; settings: in vivo, 336 h
# [43] = Toxicity in po dosed dog measured assessed as drug tolerance measured over 14 days; assay type: organism-based, Canis lupus familiaris; settings: in vivo, 336 h
# Canis familiaris [44] = assay: Hepatotoxicity in male dog assessed as decrease in alanine aminotransferase levels at >= 30 mg/kg/day, po measured over 14 days; assay type: toxicity, organism-based, Canis lupus familiaris; settings: in vivo, 336 h
# [45] = Toxicity in dog assessed as histologic change in testes at 300 mg/kg/day, po measured over 14 days; assay type: organism-based, Canis lupus familiaris; settings: in vivo, 336 h
# Canis familiaris [46] = assay: Hepatotoxicity in female dog assessed as decrease in alanine aminotransferase levels at >= 100 mg/kg/day, po measured over 14 days; assay type: toxicity, organism-based, Canis lupus familiaris; settings: in vivo, 336 h
# Canis familiaris [47] = assay: Hepatotoxicity in female dog assessed as pathological changes at >= 100 mg/kg/day, po measured over 14 days; assay type: toxicity, organism-based, Canis lupus familiaris; settings: in vivo, 336 h
# [48] = Unbound Cmax in dog at 30 mg/kg, po administered as single dose measured on day 14; assay type: ADME, organism-based, Canis lupus familiaris; settings: in vivo
# [49] = Average plasma concentration in dog at 30 mg/kg, po administered as single dose measured on day 14; assay type: ADME, organism-based, Canis lupus familiaris; settings: in vivo
# Rattus norvegicus [50] = assay: Cardiovascular toxicity in rat assessed as decrease in heart rate at 10 mg/kg, po measured over 14 days; assay type: organism-based; settings: in vivo, 336 h
# Rattus norvegicus [51] = assay: Cardiovascular toxicity in rat assessed as decrease in body temperature at 10 mg/kg, po measured over 14 days; assay type: organism-based; settings: in vivo, 336 h
# Rattus norvegicus [52] = assay: Cardiovascular toxicity in rat assessed as small biphasic change in blood pressure at 30 to 100 mg/kg, po measured over 14 days; assay type: organism-based; settings: in vivo, 336 h
# [53] = Unbound Cmax in rat at 10 mg/kg, po administered as single dose measured on day 14; assay type: ADME, organism-based; settings: in vivo
# [54] = Average plasma concentration in rat at 10 mg/kg, po administered as single dose measured on day 14; assay type: ADME, organism-based; settings: in vivo
# [55] = Unbound Cmax in rat at 30 mg/kg, po administered as single dose measured on day 14; assay type: ADME, organism-based; settings: in vivo
structure (smiles),measurement,setting,value
N#Cc1ccc(Oc2ccc(S(=O)(=O)Nc3ccc(F)cn3)cc2C#N)cc1Cl,microsomal CLint,[1],< 14 µL/min/mg
same,solubility,[2],7.7 µM
same,pKa,[3],5.8
same,microsomal CLint,[4],< 13 µL/min/mg
same,logD,[5],1.8
same,Papp,[6],16 ×10⁻⁶ cm/s
same,microsomal CLint,[7],< 18 µL/min/mg
same,fraction unbound,[8],0.0012
same,fraction unbound,[9],0.0021
same,fold change (FC),[10],1.003
same,fold change (FC),[11],1.067
same,fold change (FC),[12],1.232
same,IC50,Cytochrome P450 1A2,> 30 µM
same,IC50,Cytochrome P450 2C8,11.9 µM
same,IC50,Cytochrome P450 2C9,4.2 µM
same,IC50,Cytochrome P450 2D6,> 30 µM
same,IC50,[13],14 µM
same,IC50,[14],0.72 µM
same,IC50,[15],14 µM
same,Activity,[16],103 µM
same,Activity,[17],Non-Toxic
same,IC50,[18],> 30 µM
same,Ki,[19],4.8 µM
same,hepatocyte CLint,[20],23 µL/min/1e6 cells
same,hepatocyte CLint,[21],10 µL/min/1e6 cells
same,hepatocyte CLint,[22],< 6 µL/min/1e6 cells
same,clearance,[23],0.48 mL/min/kg
same,CL free,[24],229 mL/min/kg
same,Vd,[25],0.25 L/kg
same,bioavailability,[26],100%
same,clearance,[27],0.39 mL/min/kg
same,half-life,[28],6.7 h
same,Vd,[29],0.18 L/kg
same,bioavailability,[30],100%
same,dose excreted,[31],< 0.5%
same,CL renal,[32],0.0001 mL/min/kg
same,CL renal,[33],0.0001 mL/min/kg
same,Drug metabolism,[34],Metabolite_Detected
same,Drug metabolism,[35],Metabolite_Detected
same,Drug metabolism,[36],Metabolite_Notdetected
same,Drug metabolism,[37],Metabolite_Detected
same,Drug metabolism,[38],Metabolite_Detected
same,Drug metabolism,[39],Metabolite_Notdetected
same,Activity,Rattus norvegicus [40],Toxic
same,Activity,Rattus norvegicus [41],Toxic
same,Activity,Rattus norvegicus [42],Toxic
same,Activity,[43],<= 300 mg kg-1
same,Activity,Canis familiaris [44],Toxic
same,Activity,[45],Toxic
same,Activity,Canis familiaris [46],Toxic
same,Activity,Canis familiaris [47],Non-Toxic
same,fCmax,[48],7.419 µM
same,Cave,[49],3980 nM
same,Activity,Rattus norvegicus [50],Toxic
same,Activity,Rattus norvegicus [51],Toxic
same,Activity,Rattus norvegicus [52],Toxic
same,fCmax,[53],59 nM
same,Cave,[54],41 nM
same,fCmax,[55],179 nM
